From paper PMC11984905, “Chiral Switch of Gadopiclenol: New Standards in MRI Probes” (Advanced Science, 2025)
Read-outs that look alike come from different tables or passages of the source. Marks after values point to notes of the source that are not given here.

Assays:
[1] = cited from earlier work
[2] = cited from earlier work; remark: listed apart in the source
[3] = cited from earlier work; remark: listed apart in the source
[4] = cited from earlier work; for pGd: [Gd^3+]tot = 1 µM, [L]tot = 10 µM; for pGd / logK^c GdL: pH 7.4, calculated from literature constants; for *logKGd(H2L): diprotonated out-of-cage intermediate
[5] = 25 °C, cited from earlier work
[6] = cited from earlier work; remark: listed apart in the source
[7] = Relaxivity at 21 / 400 MHz and 25 °C in 0.15 M NaCl; assay type: physicochemical; settings: 400 MHz
Protocol: The relaxivity values were calculated from the longitudinal relaxation time of H2O protons (T 1) measured at 21 MHz on a Stelar relaxometer connected to a Bruker WP80 NMR electromagnet adapted to variable‐field measurements (15−80 MHz proton Larmor frequency). The temperature of the sample holder was controlled with a thermostatted air stream. The longitudinal relaxation time was measured with the “inversion recovery” method (180° – τ – 90°) by using 12 different τ values with typical 90° pulse width of 6.4 µs, 4 scans. The measurements were performed with 1 mM solution of the Gd(III)‐complexes with rac‐L1, ent‐L1, rac‐L2, and ent‐L2 ligands, so the relaxivity values were given as r 1 = […] where T 1p and T 1w were the relaxation time of bulk water protons in the presence and absence of paramagnetic species, respectively. The variable pH relaxivity measurements of Gd(III)‐complexes with rac‐L1, ent‐L1, rac‐L2, and ent‐L2 ligands could be carried out by direct titration of the samples in the pH range 2.5–9.0 (21 MHz, 25 °C, 0.15 M NaCl). The pH was adjusted by stepwise addition of concentrated NaOH or HCl solution.
The stability constant of Gd(III)‐complexes with rac‐L2 and ent‐L2 ligands were determined by the measurement of the proton relaxation rates (r 1) studying the competition reaction of rac‐L2 and ent‐L2 ligands with AAZTA for Gd(III) ion at pH = 4.0 in 0.15 M NaCl solution. In these experiments, the concentration of Gd^3+, rac‐L2, and ent‐L2 ligands was 2.0 mM, while that of the AAZTA was varied between 1.0 and 6.0 mM (5 × 1.5 mL samples). The pH was adjusted to pH 4.0 by stepwise addition of concentrated NaOH or HCl solutions. The samples were kept at 70 °C for a month and then at 25°C for two months in order to attain the equilibrium (the time needed to reach the equilibria was determined by ^1H‐NMR relaxometry). ^1H‐NMR relaxometric measurement of Gd(III) – rac‐L2 – AAZTA and Gd(III) – ent‐L2 – AAZTA systems were performed with a Bruker Avance III 400 (9.4 T) equipped with BB inverse z gradient probe (5 mm). The longitudinal relaxation time (T 1) was measured with the “inversion recovery” method (180° – τ – 90°) by using 12 different τ values with typical 90° pulse width of 12.0 µs, 4 scans at 298 K. The stability constants of [Gd(rac‐L2)] and [Gd(ent‐L2)] complexes were calculated by considering the protonation constants of AAZTA ligand and the stability constant of [Gd(AAZTA)]^− complex (AAZTA: logK 1 ^H = 10.06, logK 2 ^H = 6.50, logK 3 ^H = 3.77, logK 4 ^H = 2.33, logK 5 ^H = 1.51; [Gd(AAZTA)]^−: logK GdL = 18.93, 0.15 M NaCl, 25 °C).^[ [47] ^] The equilibrium constants were calculated with the program PSEQUAD.^[ [48] ^]

[8] = Biodistribution and in vivo dynamic T1-weighted MRI; design: species or system A/J healthy mice; settings: 0.1 mmol Gd/kg i.v.
Protocol: Dynamic T 1‐weighted MRI on twelve A/J healthy mice was used to compare the biodistribution of ([Gd(ent‐L2)] and [Gd(BT‐DO3A)] (Gadovist), n = 6 animals each), administered at 0.1 mmol Gd/kg. The MRI monitored the distribution within abdominal tissues for up to 1 h post‐administration MRI images and the pharmacokinetic curves are shown in Figure 6 .
All the procedures and the experiments were conducted according to the national and international laws on experimental animal research (L.D. 26/2014; Directive 2010/63/EU) and under a specific Italian Ministerial Authorization (project research number 46/2015‐PR). Twelve A/J healthy mice (females, 6–7 weeks old, supplied by Envigo RMS S.r.l.) were housed in a controlled environment (22°C, 55% humidity, 15–20 air changes/hour, 12‐h light/dark cycle) with ad libitum access to VRF1 (P) certified pellets and filtered water. To minimize discomfort, the animals were socially housed with enrichment items. Veterinary care was available throughout the study to alleviate any potential pain or distress following procedures. […] The animals were randomly assigned to two experimental groups (n = 6 each, with sample size confirmed via GPower) and underwent to Magnetic Resonance Imaging (MRI) experiments performed using a BioSpec 47/30 preclinical scanner (Bruker Biospin, Ettlingen, Germany) operating at […] (i.e., at a proton Larmor frequency of 125 MHz) and equipped with two‐channel 35 mm RF volume coil. During MRI experiments, all the animals were anaesthetized with isoflurane gas (≈1%) in O2. Anaesthesia was maintained by adjustment of gas level as a function of breath rate. Before injection of each test article, T 1‐weighted spin echo sequences were acquired on the animal in order to check the position of the animal. A series of T 1‐weighted 3D gradient echoscans (repetition time = 50 ms, flip angle = 50°, echo time = 2.8 ms, number of averages = 2, matrix size (3D) = 192 × 192 × 8, field of view = 2.5 × 2.5 × 1.2 cm, acquisition time = 154 s) were then acquired before and after the intravenous administration of a 50 mM saline solution (0.9%) of [Gd(ent‐L2)] (n = 6 mice) and [Gd(BT‐DO3A)] (Gadovist, Bayer Schering, Germany) (n = 6 mice) at an injection rate of ≈2 mL/min through a catheter placed in the tail vein of the animal. Both [Gd(ent‐L2)] and [Gd(BT‐DO3A)] were administered at a dose of 0.1 mmol Gd/kg corresponding to an administration volume of 2 mL kg^−1. The kinetics of the Gd(III)‐complexes was followed up to 60 min post‐injection. After imaging was performed, the mouse was removed from the scanner and returned to the Animal Facility room. At the end of the study all animals were sacrificed by overdose of anaesthesia and cervical dislocation. Unblinded image analysis was performed by positioning the region of interest (ROIs) over liver, kidney, muscle, and blood vessel. ROIs positioning and signal quantification was performed by using a home‐developed plugin, running on Image J.^[ [51] ^]
Signal enhancement (Enh) was calculated using the formula: Enh = 100×(SignalpostCA ‐SignalpreCA)/SignalpreCA, where SignalpreCA and SignalpostCA denote the MR signal before and after administration of contrast agents, respectively. Data were presented as mean ± standard deviation (SD). The sample size (n = 6 per group) was determined a priori using GPower software to ensure adequate statistical power. The Levene's test was employed to assess the homogeneity of variances among groups. For comparisons where homogeneity of variance was confirmed, a one‐way ANalysis Of VAriance (ANOVA) was applied to test the null hypothesis that treatment groups originate from the same distribution. Post‐hoc pairwise multiple comparisons were performed using Tukey's method when significant differences were detected. Statistical analyses and data visualization were conducted using Mathematica (Wolfram, USA), while summary statistics (mean, SD, and standard error) were calculated using Microsoft Excel (USA). […]

[9] = cited from earlier work; for ^298K r 1 [1.5 T] / r 1 ^310K [1.5 T]: water; for τ R: Table 2

## CC(O)CN1CCN(CC(=O)O)CCN(CC(=O)O)CCN(CC(=O)O)CC1 (stereo not shown) [HP‐DO3A]
[1]; 0.1 M Me4NCl, 25 °C
  logK CaL: 14.83
[2]; 0.1 M Me4NCl, 25 °C
  logK ZnL: 19.37
[2]; 0.1 M Me4NCl
  logKZnHL: 3.7
[3]; 0.1 M Me4NCl, 25 °C
  logK CuL: 22.84
[3]; 0.1 M Me4NCl
  logKCuH2L: 2.3
  logKCuHL: 3.72
[4]; 0.1 M Me4NCl, 25 °C
  logK GdL: 23.8
[4]; 0.1 M Me4NCl
  logKGdHL: 1.10
  pGd: 18.16
  logK^c GdL: 17.21
[4]; 0.15 M NaCl, 25 °C
  logKGdLH-1: 11.36^f)
  *logKGd(H2L): 5.10^f)
[5]; 0.1 M Me4NCl
  logK1^H: 11.96
  logK2^H: 9.43
  logK3^H: 4.30
  logK4^H: 3.26
  ΣlogKi^H: 28.95
[6]; pH 7.4, 0.1 M NaCl, 25 °C
  k d at pH = 7.4: 1.0 × 10^−11 s^−1
[6]; pH 7.4, 0.15 M NaCl, 25 °C
  k d at pH = 7.4: 1.2 × 10^−11 s^−1

## O=C(O)CN1CCN(CC(=O)O)Cc2cccc(n2)CN(CC(=O)O)CC1 [PCTA, 3,6,9,15‐tetraazabicyclo[9.3.1]pentadeca‐1(15),11,13‐triene‐3,6,9 triacetic acid]
[1]; 1.0 M KCl
  logK CaL: 12.72
  logKCaHL: 3.79
[2]; 1.0 M KCl
  logK ZnL: 20.48
  logKZnHL: 3.10
[3]; 1.0 M KCl
  logK CuL: 18.79
  logKCuHL: 3.58
[4]; 1.0 M KCl
  logK GdL: 20.39
  logKGdLH-1: 11.10
  pGd: 17.11
  *logKGd(H2L): 3.12
  logK^c GdL: 16.15
[5]; 0.15 M NaCl
  logK1^H: 9.97
  logK2^H: 6.73
  logK3^H: 3.22
  logK4^H: 1.40
  ΣlogKi^H: 21.32
[5]; 1.0 M KCl
  logK1^H: 11.36
  logK2^H: 7.35
  logK3^H: 3.83
  logK4^H: 2.12
  ΣlogKi^H: 25.95

## CC1(N(CC(=O)[O-])CC(=O)[O-])CN(CC(=O)[O-])CCN(CC(=O)[O-])C1.[Gd+3] [[Gd(AAZTA)]^−, reference compound]
[7]
  r1p: 6.56 ± 0.08 mM⁻¹ s⁻¹
[4]; 0.15 M NaCl, 25 °C
  logK GdL: 18.93

## O=C([O-])CN1CCN(CC(=O)[O-])CCN(C(CO)C(O)CO)CCN(CC(=O)[O-])CC1.[Gd+3] (stereo not shown) [[Gd(BT‐DO3A)], reference compound]
[8]; 3 T, n = 6
  average maximum signal enhancement in the liver: ≈ 110%
[8]; up to 1 h post-administration
  wash-in and wash-out kinetics: rapid wash‐in and wash‐out
[8]; within 30 min, 3 T
  decrease in signal enhancement in the blood compartment: ≥ 50%
[6]; 25 °C
  k1: 3.4e-05 M⁻¹ s⁻¹
[6]; pH 7.4, 0.1 M NaCl, 25 °C
  k d at pH = 7.4: 1.35×10^-12 s^−1

## O=C([O-])CN1CCN(CC(=O)[O-])CCN(CC(=O)[O-])CCN(CC(=O)[O-])CC1.[Gd+3] [[Gd(DOTA)]^−]
[6]; 0.15 M NaCl, 25 °C
  k1: 1.8e-06 M⁻¹ s⁻¹
[6]; 3.0 M NaClO4, 25 °C
  K^HGd(HL): 14^d) M^-1
[6]; 25 °C
  k1: 8.4e-06 M⁻¹ s⁻¹
[6]; pH 7.4, 0.15 M NaCl, 25 °C
  k d at pH = 7.4: 7.3×10^-14 s^−1
[6]; pH 7.4, 25 °C
  k d at pH = 7.4: 3.3×10^-14 s^−1
[6]; spontaneous dissociation, 0.15 M NaCl, 25 °C
  k0: 6.7×10^-11 b) s^-1
[9]
  ^298K r 1 [1.5 T]: 4.2 mM⁻¹ s⁻¹
  r 1 ^310K [1.5 T]: 3.3 mM⁻¹ s⁻¹
  τ R: 90 ps
  q: 1
  τ M1: 208 ns

## O=C([O-])CN1CCN(CC(=O)[O-])Cc2cccc(n2)CN(CC(=O)[O-])CC1.[Gd+3] [[Gd(PCTA)]]
[9]
  ^298K r 1 [1.5 T]: 6.4 mM⁻¹ s⁻¹
  r 1 ^310K [1.5 T]: 4.9 mM⁻¹ s⁻¹
  τ R: 63 ps
  q: 2
  τ M1: 151 ns
  τ M2: 36 ns
